# Laboratory results reported in patent US20070167492A1, “Molluscicidal agents” (priority 2003, published 2007).
# Experiments:
# [1] = Example 1: pot test, treated winter wheat seed with 5 adult slugs per pot, 14 days; format: in vivo, Deroceras reticulatum; settings: Example 1; winter wheat seed treatment
# Outline: (§1)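 Fludioxonil-disinfected winter wheat seed (Kampa, 40 per pot) sown on quartz sand over potting soil with 5 adult slugs per pot; ±15° C., ±90% RH, 12 h light/12 h dark, 4 replicates. Damaged seeds, plants, dead slugs and fecal pellets counted up to day 14; F-tests and Student-tests.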
# [2] = test system: Deroceras reticulatum (grey field slug); test: as above; format: in vivo; settings: for protection / slug controlling effect (conclusion): winter wheat seed treatment, dosages tested
# Outline: as §1
# [3] = 2 ml formulated per kg seed, 2 days after sowing
# [4] = 2 ml formulated per kg seed, 3 days after sowing
# [5] = 2 ml formulated per kg seed, 7 days after sowing
# [6] = 2 ml formulated per kg seed, 10 days after sowing
# [7] = 2 ml formulated per kg seed, 14 days after sowing
# [8] = 4 ml formulated per kg seed, 2 days after sowing
# [9] = 4 ml formulated per kg seed, 3 days after sowing
# [10] = 4 ml formulated per kg seed, 7 days after sowing
# [11] = 4 ml formulated per kg seed, 10 days after sowing
# [12] = 4 ml formulated per kg seed, 14 days after sowing
# [13] = 10 ml formulated per kg seed, 2 days after sowing
# [14] = 10 ml formulated per kg seed, 3 days after sowing
# [15] = 10 ml formulated per kg seed, 7 days after sowing
# [16] = 10 ml formulated per kg seed, 10 days after sowing
# [17] = 10 ml formulated per kg seed, 14 days after sowing
# [18] = 3.8 ml formulated per kg seed, 2 days after sowing
# [19] = 3.8 ml formulated per kg seed, 3 days after sowing
# [20] = 3.8 ml formulated per kg seed, 7 days after sowing
# [21] = 3.8 ml formulated per kg seed, 10 days after sowing
# [22] = 3.8 ml formulated per kg seed, 14 days after sowing
# [23] = 7.5 ml formulated per kg seed, 2 days after sowing
# [24] = 7.5 ml formulated per kg seed, 3 days after sowing
# [25] = 7.5 ml formulated per kg seed, 7 days after sowing
# [26] = 7.5 ml formulated per kg seed, 10 days after sowing
# [27] = 7.5 ml formulated per kg seed, 14 days after sowing
# [28] = 11 ml formulated per kg seed, 2 days after sowing
# [29] = 11 ml formulated per kg seed, 3 days after sowing
# [30] = 11 ml formulated per kg seed, 7 days after sowing
# [31] = 11 ml formulated per kg seed, 10 days after sowing
# [32] = 11 ml formulated per kg seed, 14 days after sowing
# [33] = 15 ml formulated per kg seed, 2 days after sowing
# [34] = 15 ml formulated per kg seed, 3 days after sowing
# [35] = 15 ml formulated per kg seed, 7 days after sowing
# [36] = 15 ml formulated per kg seed, 10 days after sowing
# [37] = 15 ml formulated per kg seed, 14 days after sowing
compound,measurement,setting,value
O=CC=Cc1ccccc1 [cinnamaldehyde],phytotoxicity,[1],phytotoxic
same,number of utilizable plants after 14 days,[2]; 2 ml formulated per kg seed,6.8
same,percentage of damaged seeds after 14 days,[2]; 2 ml formulated per kg seed,64%
same,Mean number of damaged seeds per pot,[2]; [3],2.0
same,Mean number of dead slugs per pot,[2]; [3],0
same,Mean number fecal pellets per pot,[2]; [4],47
same,Mean number of damaged seeds per pot,[2]; [4],5.5
same,Mean number of dead slugs per pot,[2]; [4],1.3
same,Mean number of plants present per pot,[2]; [4],3.3
same,Mean number fecal pellets per pot,[2]; [5],71
same,Mean number of damaged seeds per pot,[2]; [5],24.5
same,Mean number of dead slugs per pot,[2]; [5],1.3
same,Mean number of plants present per pot,[2]; [5],5.0
same,Mean number fecal pellets per pot,[2]; [6],80
same,Mean number of damaged seeds per pot,[2]; [6],24.8
same,Mean number of dead slugs per pot,[2]; [6],1.3
same,Mean number of plants present per pot,[2]; [6],6.8
same,Mean number fecal pellets per pot,[2]; [7],95
same,Mean number of damaged seeds per pot,[2]; [7],25.8
same,Mean number of dead slugs per pot,[2]; [7],1.8
same,Mean number of plants present per pot,[2]; [7],6.8
same,number of utilizable plants after 14 days,[2]; 4 ml formulated per kg seed,0.5
same,percentage of damaged seeds after 14 days,[2]; 4 ml formulated per kg seed,73%
same,Mean number of damaged seeds per pot,[2]; [8],3.3
same,Mean number of dead slugs per pot,[2]; [8],0
same,Mean number fecal pellets per pot,[2]; [9],46
same,Mean number of damaged seeds per pot,[2]; [9],6.5
same,Mean number of dead slugs per pot,[2]; [9],0
same,Mean number of plants present per pot,[2]; [9],3.0
same,Mean number fecal pellets per pot,[2]; [10],111
same,Mean number of damaged seeds per pot,[2]; [10],26.5
same,Mean number of dead slugs per pot,[2]; [10],0.3
same,Mean number of plants present per pot,[2]; [10],1.3
same,Mean number fecal pellets per pot,[2]; [11],152
same,Mean number of damaged seeds per pot,[2]; [11],27.0
same,Mean number of dead slugs per pot,[2]; [11],0.3
same,Mean number of plants present per pot,[2]; [11],1.8
same,Mean number fecal pellets per pot,[2]; [12],160
same,Mean number of damaged seeds per pot,[2]; [12],29.0
same,Mean number of dead slugs per pot,[2]; [12],0.8
same,Mean number of plants present per pot,[2]; [12],0.8
same,number of utilizable plants after 14 days,[2]; 10 ml formulated per kg seed,0.5
same,percentage of damaged seeds after 14 days,[2]; 10 ml formulated per kg seed,37%
same,Mean number of damaged seeds per pot,[2]; [13],4.0
same,Mean number of dead slugs per pot,[2]; [13],0
same,Mean number fecal pellets per pot,[2]; [14],54
same,Mean number of damaged seeds per pot,[2]; [14],7.0
same,Mean number of dead slugs per pot,[2]; [14],1.3
same,Mean number of plants present per pot,[2]; [14],5.0
same,Mean number fecal pellets per pot,[2]; [15],58
same,Mean number of damaged seeds per pot,[2]; [15],10.3
same,Mean number of dead slugs per pot,[2]; [15],1.3
same,Mean number of plants present per pot,[2]; [15],0.3
same,Mean number fecal pellets per pot,[2]; [16],77
same,Mean number of damaged seeds per pot,[2]; [16],10.3
same,Mean number of dead slugs per pot,[2]; [16],1.3
same,Mean number of plants present per pot,[2]; [16],0.5
same,Mean number fecal pellets per pot,[2]; [17],93
same,Mean number of damaged seeds per pot,[2]; [17],14.8
same,Mean number of dead slugs per pot,[2]; [17],1.3
same,Mean number of plants present per pot,[2]; [17],0.8
same,dead slugs relative to the untreated seed,"[2]; Example 1, 2 or 10 ml per kg of seed, 3 days after the start",significantly more dead slugs
same,damaged seeds relative to the untreated seed,"[2]; Example 1, all dosages (2, 4, 10 ml/kg), after 3 and 7 days",significantly less damaged seeds
same,protection / slug controlling effect (conclusion),[2]; Example 1,no protection to the plant
CC1OC(C)OC(C)OC(C)O1 (stereo not shown) [metaldehyde],number of utilizable plants after 14 days,[2]; 3.8 ml formulated per kg seed,32.3
same,percentage of damaged seeds after 14 days,[2]; 3.8 ml formulated per kg seed,7%
same,Mean number of damaged seeds per pot,[2]; [18],0
same,Mean number of dead slugs per pot,[2]; [18],0
same,Mean number fecal pellets per pot,[2]; [19],1
same,Mean number of damaged seeds per pot,[2]; [19],0.3
same,Mean number of dead slugs per pot,[2]; [19],0
same,Mean number of plants present per pot,[2]; [19],9.3
same,Mean number fecal pellets per pot,[2]; [20],4
same,Mean number of damaged seeds per pot,[2]; [20],2.5
same,Mean number of dead slugs per pot,[2]; [20],0
same,Mean number of plants present per pot,[2]; [20],34.8
same,Mean number fecal pellets per pot,[2]; [21],5
same,Mean number of damaged seeds per pot,[2]; [21],1.3
same,Mean number of dead slugs per pot,[2]; [21],0
same,Mean number of plants present per pot,[2]; [21],33.0
same,Mean number fecal pellets per pot,[2]; [22],31
same,Mean number of damaged seeds per pot,[2]; [22],2.8
same,Mean number of dead slugs per pot,[2]; [22],0.5
same,Mean number of plants present per pot,[2]; [22],34.0
same,number of utilizable plants after 14 days,[2]; 7.5 ml formulated per kg seed,34.3
same,percentage of damaged seeds after 14 days,[2]; 7.5 ml formulated per kg seed,6%
same,Mean number of damaged seeds per pot,[2]; [23],0
same,Mean number of dead slugs per pot,[2]; [23],0
same,Mean number fecal pellets per pot,[2]; [24],2
same,Mean number of damaged seeds per pot,[2]; [24],0
same,Mean number of dead slugs per pot,[2]; [24],0
same,Mean number of plants present per pot,[2]; [24],3.5
same,Mean number fecal pellets per pot,[2]; [25],4
same,Mean number of damaged seeds per pot,[2]; [25],3.5
same,Mean number of dead slugs per pot,[2]; [25],0.8
same,Mean number of plants present per pot,[2]; [25],34.3
same,Mean number fecal pellets per pot,[2]; [26],4
same,Mean number of damaged seeds per pot,[2]; [26],2.5
same,Mean number of dead slugs per pot,[2]; [26],1.0
same,Mean number of plants present per pot,[2]; [26],35.3
same,Mean number fecal pellets per pot,[2]; [27],6
same,Mean number of damaged seeds per pot,[2]; [27],2.5
same,Mean number of dead slugs per pot,[2]; [27],1.5
same,Mean number of plants present per pot,[2]; [27],35.0
same,number of utilizable plants after 14 days,[2]; 11 ml formulated per kg seed,36.3
same,percentage of damaged seeds after 14 days,[2]; 11 ml formulated per kg seed,1%
same,Mean number of damaged seeds per pot,[2]; [28],0
same,Mean number of dead slugs per pot,[2]; [28],0
same,Mean number fecal pellets per pot,[2]; [29],2
same,Mean number of damaged seeds per pot,[2]; [29],0
same,Mean number of dead slugs per pot,[2]; [29],0
same,Mean number of plants present per pot,[2]; [29],9.8
same,Mean number fecal pellets per pot,[2]; [30],2
same,Mean number of damaged seeds per pot,[2]; [30],1.0
same,Mean number of dead slugs per pot,[2]; [30],0.5
same,Mean number of plants present per pot,[2]; [30],34.0
same,Mean number fecal pellets per pot,[2]; [31],1
same,Mean number of damaged seeds per pot,[2]; [31],0.3
same,Mean number of dead slugs per pot,[2]; [31],0.5
same,Mean number of plants present per pot,[2]; [31],35.8
same,Mean number fecal pellets per pot,[2]; [32],3
same,Mean number of damaged seeds per pot,[2]; [32],0.3
same,Mean number of dead slugs per pot,[2]; [32],1.0
same,Mean number of plants present per pot,[2]; [32],36.5
same,number of utilizable plants after 14 days,[2]; 15 ml formulated per kg seed,34.5
same,percentage of damaged seeds after 14 days,[2]; 15 ml formulated per kg seed,0%
same,Mean number of damaged seeds per pot,[2]; [33],0.3
same,Mean number of dead slugs per pot,[2]; [33],0
same,Mean number fecal pellets per pot,[2]; [34],1
same,Mean number of damaged seeds per pot,[2]; [34],0
same,Mean number of dead slugs per pot,[2]; [34],0.3
same,Mean number of plants present per pot,[2]; [34],6.3
same,Mean number fecal pellets per pot,[2]; [35],3
same,Mean number of damaged seeds per pot,[2]; [35],0.8
same,Mean number of dead slugs per pot,[2]; [35],0.8
same,Mean number of plants present per pot,[2]; [35],35.0
same,Mean number fecal pellets per pot,[2]; [36],4
same,Mean number of damaged seeds per pot,[2]; [36],0
same,Mean number of dead slugs per pot,[2]; [36],0.8
same,Mean number of plants present per pot,[2]; [36],35.0
same,Mean number fecal pellets per pot,[2]; [37],5
same,Mean number of damaged seeds per pot,[2]; [37],0
same,Mean number of dead slugs per pot,[2]; [37],1.0
same,Mean number of plants present per pot,[2]; [37],35.3
same,damaged seeds relative to the control,"[2]; Example 1, 3.8, 7.5, 11 or 15 ml per kg of seed, all dosages",significantly less damaged seeds
same,plants present relative to untreated,"[2]; Example 1, all dosages, after 7 days",significantly more plants present
same,fecal pellets relative to the untreated seed,"[2]; Example 1, at each dosage and at each observation",significantly less fecal pellets
same,protection / slug controlling effect (conclusion),[2]; Example 1,excellent protection against slugs
